Drawing on publication PMC8286840, “Identifying SARS-CoV-2 antiviral compounds by screening for small molecule inhibitors of Nsp3 papain-like protease” (Biochemical Journal, 2021), this text covers remaining activity for 31 compounds.

The structures appear in SMILES notation. Where a name gives a salt, the structure may show the parent alone. Read-outs that look alike come from different tables or passages of the source.

Assay [1] deals with T1, SARS-CoV-2 PLpro (nsp3 1564–1878) (Severe acute respiratory syndrome coronavirus 2, UniProt P0DTD1). Briefly: biochemical. On the set-up: FRET-quenched peptide (Pro3) cleavage by PLpro, 10 min pre-incubation, slope over 20 min, normalised to no-compound control. The settings on record: read-out: % of control remaining.
Assay [2] deals with T1, SARS-CoV-2 PLpro (nsp3 1564–1878). The assay can be described thus: biochemical. On the set-up: FRET-quenched peptide (Pro3) cleavage by PLpro, 10 min pre-incubation, slope over 20 min, normalised to no-compound control. The settings on record: read-out: % of control remaining. This is another data set of the same source.

Regarding `Cc1ccccc1-n1c(Cn2cnc3c(N)ncnc32)nc2cccc(C)c2c1=O` [IC87114], the remaining activity at 3.75 µM in assay [1] (Well no.=2945, high concentration screen) is 97.6%. In addition, in assay [2] (Well no.=2945, low concentration screen), the remaining activity at 1.25 µM turned out to be 98.3%.
On to `COc1cccc(CNc2ccc(S(=O)(=O)Nc3nc4ccccc4s3)cc2)c1O` [ML355], for which the remaining activity at 3.75 µM in assay [1] (Well no.=7648, high concentration screen) is 96.7%. In addition, the remaining activity at 1.25 µM in assay [2] (Well no.=7648, low concentration screen) came to 97.9%.
Turning to `O=C(NCCN1CCOCC1)c1ccc(Cl)cc1` [Moclobemide], in assay [1] (Well no.=4640, high concentration screen), the remaining activity at 3.75 µM stood at 98.5%. In addition, the remaining activity at 1.25 µM in assay [2] (Well no.=4640, low concentration screen) is 99.1%.
Consider `Cc1ccc(C)c(OCCn2cc(C(=O)O)c3ccccc32)c1` [ML-098], for which the remaining activity at 3.75 µM in assay [1] was determined as 97.6%. Besides, the remaining activity at 1.25 µM in assay [2] worked out at 98.4%.
`COc1cc2c(Oc3ccc4[nH]c(C)cc4c3F)ncnc2cc1OCCCN1CCCC1` [Cediranib (AZD2171)]: in assay [1] (Well no.=4999, high concentration screen), the remaining activity at 3.75 µM was 103%. The remaining activity at 1.25 µM in assay [2] (Well no.=4999, low concentration screen) was found to be 101%.
Turning to `COc1ccc2c(c[n+](C)c3c4cc5c(cc4ccc23)OCO5)c1OC` [Chelerythrine chloride], the remaining activity at 3.75 µM in assay [1] (Well no.=28, high concentration screen) amounted to 92.4%; in assay [1] (Well no.=2359, high concentration screen) it was 105%. Moreover, the remaining activity at 1.25 µM in assay [2] (Well no.=28, low concentration screen) was 92.2%; in assay [2] (Well no.=2359, low concentration screen) it was 103%.
In the case of `CN1CCN(c2ccc([N+](=O)[O-])c3no[n+]([O-])c23)CC1` [NSC-207895 (XI-006)], in assay [1] (Well no.=4647, high concentration screen), the remaining activity at 3.75 µM came to 95.2%. Also, the remaining activity at 1.25 µM in assay [2] (Well no.=4647, low concentration screen) was 101%.
In the case of `S=C(S)OC1CC2CC1C1CCCC21` (mixture of isomers) [D-609 potassium], the remaining activity at 3.75 µM in assay [1] (Well no.=1374, high concentration screen) amounted to 99%. Further, the remaining activity at 1.25 µM in assay [2] (Well no.=1374, low concentration screen) came to 99.3%.
With `CO[C@@H]1COCC[C@@H]1N[C@@H]1CC[C@@](C(=O)N2CCc3ncc(C(F)(F)F)cc3C2)(C(C)C)C1` [MK-0812 (Succinate)], in assay [1] (Well no.=8321, high concentration screen), the remaining activity at 3.75 µM was 97.9%. In addition, the remaining activity at 1.25 µM in assay [2] (Well no.=8321, low concentration screen) came out at 97.5%.
As to `CCCCCCCCCCCCCCCCCC(=O)O` [Stearic acid], the remaining activity at 3.75 µM in assay [1] (Well no.=6963, high concentration screen) came to 102%. The remaining activity at 1.25 µM in assay [2] (Well no.=6963, low concentration screen) came to 98.8%.
For `COc1ccc2c(c1)c(CC(=O)N1CCOCC1)c(C)n2C(=O)c1ccc(Cl)cc1` [BML-190], the remaining activity at 3.75 µM in assay [1] (Well no.=4328, high concentration screen) came to 92.3%; in assay [1] (Well no.=8379, high concentration screen) it was 97.9%. The remaining activity at 1.25 µM is 97.5% in assay [2] (Well no.=4328, low concentration screen) and 96.7% in assay [2] (Well no.=8379, low concentration screen).
Turning to `CC(C)=CCC/C(C)=C/CC/C(C)=C/CC/C(C)=C/CC/C(C)=C/CC/C(C)=C/CC/C(C)=C/CC/C(C)=C/CC/C(C)=C/CO` [Solanesol], the remaining activity at 3.75 µM in assay [1] (Well no.=3759, high concentration screen) was 96.5%. The remaining activity at 1.25 µM in assay [2] (Well no.=3759, low concentration screen) turned out to be 96.8%.
As to `CC(=O)N1CCC(C(=O)N(CCCN2CCC(Cc3ccc(C(N)=O)cc3)CC2)c2ccc(C)c(Cl)c2)CC1` [TAK-220], the remaining activity at 3.75 µM in assay [1] (Well no.=8363, high concentration screen) came to 92.9%. Further, the remaining activity at 1.25 µM in assay [2] (Well no.=8363, low concentration screen) is 94.6%.
For the compound `Cc1cnc(-c2cc(N3CCN(C(=O)CCS(C)(=O)=O)CC3)ncc2Cl)c(C)c1` [PF-5274857 hydrochloride], the remaining activity at 3.75 µM in assay [1] (Well no.=5701, high concentration screen) came to 103%. Also, the remaining activity at 1.25 µM in assay [2] (Well no.=5701, low concentration screen) stood at 102%.
Take `CCCCC[C@H](O)CC[C@H]1[C@H](O)CC(=O)[C@@H]1CCCCCCC(=O)O` [13,14-Dihydro-prostaglandin E1]: the remaining activity at 3.75 µM in assay [1] (Well no.=4278, high concentration screen) worked out at 101%. The remaining activity at 1.25 µM in assay [2] (Well no.=4278, low concentration screen) stood at 102%.
Take `CC(C)CC(=O)NCC(=O)O` [N-Isovaleroylglycine]: in assay [1] (Well no.=6643, high concentration screen), the remaining activity at 3.75 µM worked out at 122%. Moreover, in assay [2] (Well no.=6643, low concentration screen), the remaining activity at 1.25 µM is 110%.
As for `C=CCN1CC[C@]23c4c5ccc(O)c4O[C@H]2C(=O)CC[C@@]3(O)[C@H]1C5` [Naloxone hydrochloride], the remaining activity at 3.75 µM in assay [1] (Well no.=907, high concentration screen) came to 105%. The remaining activity at 1.25 µM in assay [2] (Well no.=907, low concentration screen) was 103%.
Take `CCn1nnc2c(N3CCOCC3)nc(-c3ccc(NC(=O)Nc4ccc(C(=O)N5CCN(C)CC5)cc4)cc3)nc21` [PKI-402]: the remaining activity at 3.75 µM in assay [1] (Well no.=4699, high concentration screen) is 101%. The remaining activity at 1.25 µM in assay [2] (Well no.=4699, low concentration screen) is 105%.
Consider `O=c1[nH]c(=O)n([C@H]2C[C@H](O)[C@@H](CO)O2)cc1C(F)(F)F` [Trifluridine], for which the remaining activity at 3.75 µM in assay [1] (Well no.=6438, high concentration screen) worked out at 98.3%; in assay [1] (Well no.=8058, high concentration screen) it was 86.7%. The remaining activity at 1.25 µM in assay [2] (Well no.=6438, low concentration screen) was 98%; in assay [2] (Well no.=8058, low concentration screen), 85.9%.
On to `CNCC(O)c1ccc(O)c(O)c1` [L-Epinephrine (Bitartrate)], for which, in assay [1] (Well no.=6952, high concentration screen), the remaining activity at 3.75 µM was determined as 94.1%. Further, the remaining activity at 1.25 µM in assay [2] (Well no.=6952, low concentration screen) came out at 98%.
Take `Cc1cc(NC(=O)CS(=O)(=O)c2cn(Cc3cc(Br)ccc3F)c3ccccc23)no1` [ML169]: the remaining activity at 3.75 µM in assay [1] (Well no.=5507, high concentration screen) turned out to be 97.5%. For the same compound, the remaining activity at 1.25 µM in assay [2] (Well no.=5507, low concentration screen) came out at 99%.
Consider `CCc1c(CC(N)=O)c2cc(OCCCP(=O)(O)O)ccc2n1Cc1ccccc1` [LY311727], for which the remaining activity at 3.75 µM in assay [1] (Well no.=5502, high concentration screen) is 109%. The remaining activity at 1.25 µM in assay [2] (Well no.=5502, low concentration screen) is 102%.
On to `COC1=C2C[C@@H](C)C[C@H](OC)[C@H](O)[C@@H](C)/C=C(\C)[C@H](OC(N)=O)[C@@H](OC)/C=C\C=C(/C)C(=O)NC(=CC1=O)C2=O` [Geldanamycin], for which the remaining activity at 3.75 µM in assay [1] (Well no.=5019, high concentration screen) was 101%. Also, the remaining activity at 1.25 µM in assay [2] (Well no.=5019, low concentration screen) was 98.5%.
`CC1CCc2c(N3CCC(O)CC3)c(F)cc3c(=O)c(C(=O)O)cn1c23` (centres unmarked) [Nadifloxacin]: the remaining activity at 3.75 µM in assay [1] (Well no.=2003, high concentration screen) came to 94.8%. In assay [2] (Well no.=2003, low concentration screen), the remaining activity at 1.25 µM was 96.2%.
Consider `CC(C)(C)S(=O)(=O)c1cc2c(Nc3ccc4scnc4c3)ncnc2cc1OCCO` [RIP2 kinase inhibitor 1], for which the remaining activity at 3.75 µM in assay [1] (Well no.=6932, high concentration screen) was 105%. Besides, in assay [2] (Well no.=6932, low concentration screen), the remaining activity at 1.25 µM was determined as 102%.
As for `O=c1ccc2ccc(O)c(O)c2o1` [Daphnetin], in assay [1] (Well no.=405, high concentration screen), the remaining activity at 3.75 µM came to 101%. For the same compound, the remaining activity at 1.25 µM in assay [2] (Well no.=405, low concentration screen) worked out at 102%.
For `C#C[C@]1(O)C=C[C@H]2[C@@H]3CCC4=CC(=O)CC[C@@H]4[C@H]3CC[C@@]21CC` [Gestodene], in assay [1] (Well no.=5260, high concentration screen), the remaining activity at 3.75 µM amounted to 96.8%. Moreover, the remaining activity at 1.25 µM in assay [2] (Well no.=5260, low concentration screen) is 93.5%.
On to `COC(=O)[C@H]1[C@H]2C[C@@H]3c4[nH]c5cc(OC)ccc5c4CCN3C[C@H]2C[C@@H](OC(=O)c2cc(OC)c(OC)c(OC)c2)[C@@H]1OC` [Reserpine], for which the remaining activity at 3.75 µM in assay [1] (Well no.=3833, high concentration screen) was 94.7%. Also, the remaining activity at 1.25 µM in assay [2] (Well no.=3833, low concentration screen) was 97%.
With `CCC12C=CCN3CC[C@@]4(c5ccc(OC)cc5N(C)[C@H]4[C@@](O)(C(=O)OC)[C@@H]1OC(C)=O)[C@@H]32` (some centres unmarked) [Vindoline], in assay [1] (Well no.=3761, high concentration screen), the remaining activity at 3.75 µM was 96.6%. Moreover, the remaining activity at 1.25 µM in assay [2] (Well no.=3761, low concentration screen) was 96.2%.
Consider `Cn1ncnc1COc1nn2c(-c3c(F)cccc3F)nnc2cc1C1CCC1` [MK-0343], for which, in assay [1] (Well no.=5828, high concentration screen), the remaining activity at 3.75 µM was 102%. Further, the remaining activity at 1.25 µM in assay [2] (Well no.=5828, low concentration screen) is 101%.
In the case of `CC(C)[C@H](N)C(=O)OCCOCn1cnc2c(=O)nc(N)[nH]c21` [Valaciclovir], the remaining activity at 3.75 µM in assay [1] (Well no.=2012, high concentration screen) amounted to 97.7%. Further, the remaining activity at 1.25 µM in assay [2] (Well no.=2012, low concentration screen) was 98.7%.
